Entries after “also recorded” stand apart in the source; their conditions may differ.
How the values were obtained:
[1] = test system: Human promyelocytic leukemia (HL60) cells; assay: HL-60 differentiation (nitro blue tetrazolium reduction); format: cell-based; conditions: for EC50: Homo sapiens, HL-60, HL60 cells, FIG. 2
Protocol: Serial dilutions were prepared so that a range of drug concentrations could be tested without changing the final concentration of ethanol (≦0.2%) present in the cell cultures.
Human promyelocytic leukemia (HL60) cells were grown in RPMI-1640 medium containing 10% fetal bovine serum. The cells were incubated at 37° C. in the presence of 5% CO2.
HL60 cells were plated at 1.2×10^5 cells/ml. Eighteen hours after plating, cells in duplicate were treated with drug. Four days later, the cells were harvested and a nitro blue tetrazolium reduction assay was performed (Collins et al., 1979; J. Exp. Med. 149:969-974). The percentage of differentiated cells was determined by counting a total of 200 cells and recording the number that contained intracellular black-blue formazan deposits. Verification of differentiation to monocytic cells was determined by measuring phagocytic activity (data not shown).

[2] = test system: 24-hydroxylase (24Ohase) gene promoter; assay: In vitro transcription assay, luciferase reporter in ROS 17/2.8 (bone) cells; format: cell-based; conditions: ROS 17/2.8 cells, 24-hydroxylase promoter luciferase; FIG. 3; read-out: EC50, transcriptional activity in bone cells
Protocol: In Vitro Transcription Assay
Transcription activity was measured in ROS 17/2.8 (bone) cells that were stably transfected with a 24-hydroxylase (24Ohase) gene promoter upstream of a luciferase reporter gene (Arbour et al., 1998). Cells were given a range of doses. Sixteen hours after dosing the cells were harvested and luciferase activities were measured using a luminometer.
RLU=relative luciferase units.

Sprague-Dawley rats [3] = assay: Bone calcium mobilization (serum calcium); format: in vivo; conditions: FIG. 4; for serum calcium value: 7,020 pmol/day for 4 consecutive days, ip, low calcium diet (0.02%)
Protocol: (§1) Intestinal Calcium Transport and Bone Calcium Mobilization
(§2) Male, weanling Sprague-Dawley rats were placed on Diet 11 (0.47% Ca) diet+AEK oil for one week followed by Diet 11 (0.02% Ca)+AEK oil for 3 weeks. The rats were then switched to a diet containing 0.47% Ca for one week followed by two weeks on a diet containing 0.02% Ca. Dose administration began during the last week on 0.02% calcium diet. Four consecutive ip doses were given approximately 24 hours apart. Twenty-four hours after the last dose, blood was collected from the severed neck and the concentration of serum calcium determined as a measure of bone calcium mobilization. The first 10 cm of the intestine was also collected for intestinal calcium transport analysis using the everted gut sac method.

Sprague-Dawley rats [4] = assay: Intestinal calcium transport (everted gut sac method); format: in vivo; conditions: FIG. 5
Protocol: as §1, §2

[5] = molecular target: T1, full-length recombinant rat vitamin D receptor (Rattus norvegicus, UniProt P13053)
T1 sequence (P13053 1-423): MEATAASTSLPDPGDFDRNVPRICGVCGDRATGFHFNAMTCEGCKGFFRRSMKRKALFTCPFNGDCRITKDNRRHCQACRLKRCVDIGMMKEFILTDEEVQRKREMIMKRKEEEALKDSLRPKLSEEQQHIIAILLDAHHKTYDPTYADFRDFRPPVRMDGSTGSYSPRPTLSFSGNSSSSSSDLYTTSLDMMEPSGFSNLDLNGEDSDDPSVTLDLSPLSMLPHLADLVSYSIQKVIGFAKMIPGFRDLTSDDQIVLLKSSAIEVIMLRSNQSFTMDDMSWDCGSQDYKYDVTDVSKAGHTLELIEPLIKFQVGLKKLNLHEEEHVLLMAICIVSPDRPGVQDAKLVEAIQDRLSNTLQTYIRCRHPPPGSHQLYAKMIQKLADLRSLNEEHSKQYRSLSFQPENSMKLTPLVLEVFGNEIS
Source text: Vitamin D Receptor Binding
Full-length recombinant rat receptor was expressed in E. coli BL21 (DE3) Codon Plus RIL cells and purified to homogeneity using two different column chromatography systems. The first system was a nickel affinity resin that utilizes the C-terminal histidine tag on this protein. The protein that was eluted from this resin was further purified using ion exchange chromatography (S-Sepharose Fast Flow). Aliquots of the purified protein were quick frozen in liquid nitrogen and stored at −80° C. until use. For use in binding assays, the protein was diluted in TEDK50 (50 mM Tris, 1.5 mM EDTA, pH7.4, 5 mM DTT, 150 mM KCl) with 0.1% Chaps detergent.
Radiolabeled and unlabeled ligands were added to 100 mcl of the diluted protein at a final ethanol concentration of ≦10%, mixed and incubated overnight on ice to reach binding equilibrium. The following day, 100 mcl of hydroxylapatite slurry (50%) was added to each tube and mixed at 10-minute intervals for 30 minutes. The hydroxylapaptite was collected by centrifugation and then washed three times with Tris-EDTA buffer (50 mM Tris, 1.5 mM EDTA, pH 7.4) containing 0.5% Titron X-100. After the final wash, the pellets were transferred to scintillation vials containing 4 ml of Biosafe II scintillation cocktail, mixed and placed in a scintillation counter. Total binding was determined from the tubes containing only radiolabeled ligand.

C[C@H](CCCC(C)(C)O)C1CCC2/C(=C/C=C3\C[C@@H](O)C4=CCO[C@@H]4C3)CCC[C@@]21C (stereo partly drawn) [B-REV5, 3,2-dihydrofuran-1α,25-dihydroxy-19-nor-vitamin D3]
EC50 [1]: 1000 nM | HL-60 cell differentiation, less active/potent than 1,25(OH)2D3 ([1]; relative to 1,25(OH)2D3): about 1,000 times | potency to promote HL60 cell differentiation, less than calcitriol ([1]; relative to calcitriol): 3 logs | EC50 [2]: 300 nM | serum calcium value (Sprague-Dawley rats [3]): 6.1 mg/dL | intestinal calcium transport activity (in words) (Sprague-Dawley rats [4]; 780 pmol/day for 4 consecutive days): almost the same activity as 1,25-(OH)2D3 | intestinal calcium transport activity in vivo (in words) (Sprague-Dawley rats [4]; in vivo, compared to 1,25-(OH)2D3): significant intestinal calcium transport activity; also recorded: about the same potency | Ki [5]: 800 nM | VDR affinity, less potent than 1,25-(OH)2D3 ([5]; relative to 1,25-(OH)2D3): ~40 times | VDR binding diminished as compared to 1α,25-dihydroxyvitamin D3 ([5]; relative to 1α,25-dihydroxyvitamin D3): ~10 fold | VDR binding affinity lower than the native hormone ([5]; relative to the native hormone): approximately 4 orders of magnitude

C=C1/C(=C\C=C2/CCC[C@]3(C)[C@@H]([C@H](C)CCCC(C)(C)O)CC[C@@H]23)C[C@@H](O)C[C@@H]1O [1,25-(OH)2D3, 1α,25-dihydroxyvitamin D3, reference compound]
EC50 [1]: 3 nM | EC50 [2]: 0.2 nM | serum calcium value (Sprague-Dawley rats [3]): 7.9 mg/dL | bone calcium mobilization activity (in words) (Sprague-Dawley rats [3]; in vivo, doses tested): increased serum calcium levels at all the dosages tested
